# Read-outs that look alike come from different tables or passages of the source.
# How the values were obtained:
# [1] = test system: blood stream T. brucei strain 427; assay: Cultured bloodstream T. brucei growth/viability, parasites counted with a haemocytometer; format: cell-based, Trypanosoma brucei; details: for concentration at which all parasites were killed / no parasites survived: blood stream T. brucei strain 427, 37° C. for 40 hours
# Method: Cultured trypanosomes (seeded at 10^4/ml) in 100 μl of a 96-well plate received varying amounts of Tyrphostin A47 (Sigma). Parasites were counted with a haemocytometer after 48 hours in culture. Data are means of triplicate determinations, they are representative of three independent trials. Blood stream form of T. brucei were used for these studies since that stage of the parasite causes disease in humans. Inhibitory concentration 50 (IC50) is the drug concentration which reduces the growth rate by 50%. Minimum inhibitory concentration (MIC) is the lowest concentration which killed all the parasites.
# T. brucei strain 427 was cultured axenically and seeded at 10^4 cells/ml in 200 μl of medium a 96-well plate. Tyrphostin AG1478 (Sigma) (Zhu et al., 2001, Cancer Lett; 169:27-32; Shushan et al., 2004, Hum Reprod; 19:1957-1967) was added to the stated final concentrations, cells were incubated at 37° C. for 40 hours, and parasites were counted with a haemocytometer. Data are mean values representative of two independent trials each of which was performed in triplicate. T. brucei replicates every 8-10 hours.
# The 4-anilinoquinazoline canertinib (also referred to as C1-1033) is an inhibitor of EGFR kinase (Dewji, 2004, J Chemotherapy; 16(Suppl 4):44-48; Hamid, 2004, J Am Pharm Assoc; 44:52-58). To test the trypanocidal activity of canertinib, culture of blood stream T. brucei strain 427 was initiated in 24-well plates at 10^4 cells/ml (in 500 μl of medium (Hirumi and Hirumi, 1991, Parasitology; 102(Pt 2):225-236)). Canertinib (Heymach et al., 2006, Clin Cancer Res; 12:4441s) (provided by Pfizer) was added to the stated final concentrations, and cells were incubated at 37° C. for 40 hours. Control cells received an equal volume of solvent (DMSO). Parasites were counted with a haemocytometer. Data plotted are mean values of quadruplicate determinations from one of three independent trials that produced similar results.
# This example also determined that erlotinib (TARCEVA), a 4-anilinoquinazoline tyrosine kinase inhibitor is trypanocidal. erlotinib (TARCEVA), like canertinib, is an inhibitor of EGFR kinase (Bulgaru et al., 2003, Expert Rev Anticancer Ther; 3(3):269-79; Akita and Sliwkowski, 2003, Semin Oncol; 30(3 Suppl 7):15-24). The culture of blood stream T. brucei strain 427 was initiated in 24-well plates at 10^4 cells/ml in 500 μl of medium (Hirumi and Hirumi, 1991, Parasitology; 102 Pt 2:225-236). Erlotinib (TARCEVA) (provided by Genentech/OSI), was added to the stated final concentrations shown in FIG. 4, and cells were incubated at 37° C. for 40 hours.
# This example presents data showing sunitinib and axitinib (both provided by Pfizer) are trypanocidal. Sunitinib (also known as SU11248 and marketed under the trade name SUTENT) inhibits VEGFR, PDGF, and c-Kit kinases (reviewed in Steeghs et al., 2007, Ann Surg Oncol; 14(2):942-53) and is approved by the Food and Drug Administration for treatment of renal cell carcinoma. […] Therefore, this example tests whether sunitinib (SUTENT) compromised T. brucei viability. To blood stream form T. brucei 427 (seeded at 10^4 cells/ml in 500 μl of medium) sunitinib (SUTENT) (Abrams et al., 2003, Mol Cancer Ther; 2:471-478; Mendel et al., 2003, Clin Cancer Res; 9:327-337) was added to the stated final concentrations and cells were incubated at 37° C. for 40 hours. Parasites were counted with a haemocytometer. Data plotted are mean values of quadruplicate determinations from a representative experiment.
# [2] = cited from earlier work
# [3] = Trypanosoma brucei, blood stream T. brucei strain 427 seeded at 10^4 cells/ml, 37° C. for 40 hours, read-out: IC50
structure (smiles),measurement,setting,value
"CCN(CC)CCNC(=O)c1c(C)[nH]c(/C=C2\C(=O)Nc3ccc(F)cc32)c1C [SUTENT, N-[2-(diethylamino)ethyl]-5-[(Z)-(5-fluoro-1,2-dihydro-2-oxo-3H-indol-3-ylidine)methyl]-2,4-dimethyl-1H-pyrrole-3-carboxamide]",trypanocidal effect on T. brucei (in words),"[1]; blood stream form T. brucei 427, 37° C. for 40 hours",kills T. brucei at low micromolar levels
N#C/C(=C\c1ccc(O)c(O)c1)C(N)=S [Tyrphostin A47],IC50,"[1]; blood stream form T. brucei seeded at 10^4/ml, 96-well plate, counted after 48 hours, read-out: IC50 (drug concentration which reduces the growth rate by 50%)",1000 to 5000 nM
COc1cc2ncnc(Nc3cccc(Cl)c3)c2cc1OC [Tyrphostin AG1478],IC50,"[1]; blood stream T. brucei strain 427 seeded at 10^4 cells/ml, 37° C. for 40 hours, read-out: IC50",2500 to 5000 nM
"C=CC(=O)Nc1cc2c(Nc3ccc(F)c(Cl)c3)ncnc2cc1OCCCN1CCOCC1 [canertinib, N-[−4-[(3-chloro-4-fluorophenyl)amino]-7-[3-(4-morpholinyl)propoxy]-6-quinazolinyl]-2-propenamide]",IC50,[1]; [3],1000 nM
same,concentration at which all parasites were killed / no parasites survived,[1],Above 4 μM
"C#Cc1cccc(Nc2ncnc3cc(OCCOC)c(OCCOC)cc23)c1 [erlotinib, N-(3-ethynylphenyl)-6,7-bis(2-methoxyethoxy)quinazolin-4-amine]",IC50,[1]; [3],~1700 nM
same,concentration at which all parasites were killed / no parasites survived,[1],10 µM
same,plasma concentration,[2]; human patients receiving a cycle of 150 mg/day,60 µM
same,plasma concentration,[2]; single dose,2 µM

# Source: patent publication US9545410B2, “Tyrosine kinase inhibitors as anti-kinetoplastid agents” (UNIVERSITY OF GEORGIA RESEARCH FOUNDATION, INC., priority 2006, dated 2017)
